Measured values from patent US6756410B2, “Induction of LDL receptor expression by extracellular-signal regulated kinase, ERK-1/2” (priority 2000, dated 2004).
“Also recorded” adds a separate entry of the source.

Key:
Raf-1 kinase = Raf-1 kinase phosphorylation, immunoblot in HepG2-ΔRaf-1:ER cells; format: cell-based, human; details: 30 min pretreatment, then 1 μM ICI182,780
Method: Total cell extracts were subjected to immunoblotting using the phosphorylation-independent and phospho-specific Raf-1 kinase antibodies. The same blot was later probed with the phospho-specific p42/44^MAPK antibody.
(§1) Cells were scraped in phosphate-buffered saline (PBS) and centrifuged, and the pellet was resuspended in lysis buffer (50 mM Tris-Cl [pH 7.5], 150 mM NaCl, 10 mM MgCl2, 1 mM dithiothreitol, 10 mM NaF, 0.5 mM Na3VO4, 0.5% Nonidet P-40, 10 μg of aprotinin/ml, and 100 μg of phenylmethylsulfonyl fluoride per ml). Protein concentration was measured by the Bio-Rad protein assay. Protein (30 to 50 μg) was resolved by sodium dodecyl sulfate-polyacrylamide gel electrophoresis (SDS-PAGE) and transferred onto Immobilon P membranes (Millipore). The filter was blocked in 2.5% skim milk with 0.1% Tween 20 in PBS for 2 h followed by incubation with the specific antibody. The following antibodies were used: polyclonal rabbit antibodies against phosphorylation-independent p42/44^MAPK, phospho-specific-p42/44^MAPK, and phospho-specific or phosphorylation-independent Raf-1 kinase. Reactive proteins were detected with horseradish peroxidase-conjugated secondary antibodies and visualized with an ebb enhanced chemiluminescence detection kit (Amersham Pharmacia Biotech).

[1] = test system: human LDL receptor promoter; test: LDL receptor promoter-luciferase reporter (construct A) in HepG2-ΔRaf-1:ER cells; format: cell-based; details: for transcriptional (activating) effect of ICI182,780 on the human LDL receptor promoter in presence of inhibitor: 1 μM ICI182,780, PD98059 50 μM, staurosporine 1 μM, curcumin 20 μM
Method: HepG2-ΔRaf-1:ER cells were cotransfected with LDL receptor promoter-luciferase reporter (plasmid A) and β-galactosidase-reporter. After 24 hours, cells were grown in a medium containing 0.2% serum for 12 h, followed by addition of 1 μM ICI182,780 for the last 24 h in the absence or presence of indicated inhibitor. […] Sterols (2 μg/ml 25-hydroxycholesterol and 10 μg/ml cholesterol) were added to examine sensitivity to sterols. After the treatment both luciferase and β-galactosidase activities were measured according to the method previously described (24). The results are presented as means ±S.E. and represent at least three individual experiments.
A human low density lipoprotein receptor promoter-luciferase construct A (24) was used to determine the response of the low density lipoprotein receptor promoter to activation of the p42/44^MAPK pathway. HepG2-ΔRaf-1:ER cells were transfected with 0.6 μg of reporter plasmid and 0.25 μg of SV-βGal plasmid by lipofectamine technique, as described previously (Mehta et al., 1996). Cells were washed after 12 h, and after another 12 h the cells were treated with 1 μM ICI182,780 for 36 h, and the controls were treated with ethanol. PBS-washed cells were harvested in 250 mM Tris-Cl, pH 7.5, and lysed in the lysis buffer. The luciferase activities of the cell lysates were measured according to the manufacture's recommendations (Promega). Luciferase assays were carried out in triplicate. In FIG. 6, the data are shown as means of three experiments and the fold induction represents the difference between the means of the samples with ICI182,780 and that of the control. Luciferase activity was normalized for β-galactosidase activity.
To study the role of serine/threonine protein kinases in the activation of the LDL receptor promoter by p42/44^MAPK, HepG2 cells were transiently transfected with construct A. Sixteen hours after transfection, the cells were treated for 1 h with the indicated inhibitor, and then with ICI182,780 in the continued presence of inhibitor.
Because the primary effect of p42/44^MAPK activation is exerted at the transcriptional levels, it was next determined whether ICI182,780 treatment modulated activity of the low density lipoprotein receptor promoter. A low density lipoprotein receptor promoter/luciferase reporter construct A (Mehta et al., 1996), containing promoter sequences from −273 to +35, was transfected into HepG2-ΔRaf-1:ER cells. Both sets of transfected cells were exposed to ICI182,780 for 36 h, after which luciferase activity was determined.

LDL receptor = LDL receptor mRNA expression, Northern blot in HepG2-ΔRaf-1:ER cells; format: cell-based, human
Method: Northern blotting was done under identical conditions to measure RNA levels of LDL receptor, SS, and actin genes.
Total RNA was analyzed by Northern blot for measuring LDL receptor mRNA levels.
LDL receptor and SS mRNA levels were determined by Northern blotting. Results shown are indicative of two separate experiments.
Cells either untreated or pretreated with different concentrations of sterols (1, 2 or 5 μg/ml 25-hydroxycholesterol and 10 μg/ml cholesterol) were induced with ICI182,780 (1 μM) for 4 h. Total RNA was subjected to Northern blotting to determine mRNA levels of LDL receptor and squalene synthase.
Total RNA was isolated by the TRIzol reagent (GIBCO-BRL), according to the manufacturer's protocol. RNA was stored under ethanol. Aliquots containing 20 μg RNA were electrophoresed through a 1%-agarose-formaldehyde gel and transferred to a nylon membrane (BioRad) followed by hybridization. Hybridization probes for LDL receptor, actin, and SS, labeled with ^32P, were prepared using the M13 universal primer. Hybridizations were performed at 45° C., and after final washing at 55° C. for 30 min, filters were exposed to Kodak x-ray film. The relative intensities of specific bands were determined densitometrically within the linear range of film on a model 300A laser densitometer (Molecular Dyanamics) using Image Quant software.

p42/44^MAPK = test: p42/44MAPK phosphorylation, immunoblot with phospho-specific antibody in HepG2-ΔRaf-1:ER cells; format: cell-based, human
Method: HepG2 cells were treated with indicated doses of ICI182,780 for 4 hours. Phospho-specific p42/44^MAPK antibody was used to monitor p42/44^MAPK phosphorylation/activation, and phosphorylation-independent p42/44^MAPK antibody was used to measure total p42/44^MAPK protein.
as §1

HepG2 cells = test: Growth curves of HepG2 cells (cell counting); format: cell-based, human; details: 1 μM ICI182,780
Method: (§2) Log-phase cells were seeded at 10^5 cells per 60 mm dish. After 36 h the medium was changed to medium containing either 1 μM ICI182,780 or no ICI182,780. At the indicated times, cells were trypsinized and counted.

HepG2-ΔRaf-1:ER cells [2] = test: Light microscopic examination of cell morphology; format: cell-based; details: 1 μM ICI182,780, 24 h
Method: Cells treated with 1 μM of the ICI182,780 for 24 h were examined by optical microscopy. […] Representative photomicrographs of HepG2-ΔRaf-1:ER cells either untreated or treated with ICI182,780 were taken at low and high cell density regions of the cultured plate by using microscope.
The phenotype seen in ICI182,780-treated cells may resemble the situation of terminal differentiation, in which cells (for example, neurons) show differentiation in the absence of DNA replication.

cyclin A = test: Cyclin A protein expression, immunoblot; format: cell-based, human; details: 1 μM ICI182,780
Method: (§3) Cells were cultured in the absence or presence of 1 μM ICI182,780. Equal amounts of total protein (40 μg) were resolved by SDS-PAGE, transferred to Immobilon P membrane and probed with antibodies specific for cyclin A and p21^Cip.
as §1

HepG2-ΔRaf-1:ER cells [3] = test: Cell cycle analysis by propidium iodide FACS; format: cell-based, human; details: 1 μM ICI182,780, 18 h and 36 h
Method: The percentage of cells in the G1, S and G2 phases of the cell cycle is given for the control and ICI182,780 treated cells.
Cells (5×10^5) were seeded on 100 mm dishes and 2 days later the medium was replaced with medium containing 1 μM ICI182,780. After 18 h and 36 h, attached cells were trypsinized, centrifuged, washed in phosphate-buffered saline, resuspended in 1 ml phosphate-buffered saline, fixed in 1 ml of cold ethanol for overnight at 4° C., centrifuged again, washed once with saline, and resuspended in 0.1% bovine serum albumin containing 50 μg/ml ribonuclease and 50 μg/ml propidium iodide (Sigma), and then analysed in a fluoroscence-activated cell sorter (FACSORT, Becton Dickinson). Data were analysed using the Cellfit program.

p21^Cip1 = test: p21Cip protein expression, immunoblot; format: cell-based, human
Method: as §3, §1

HepG2-ΔRaf-1:ER cells [4] = test: DNA synthesis, [3H]thymidine incorporation; format: cell-based, human; details: ICI182,780 0 to 1 μM for 18 h or 1 μM over time
Method: Cells in a 24-well dishes were either treated with different ICI182,780 concentrations from 0 to 1 μM for 18 h (top panel) or with 1 μM of ICI182,780 for time periods as indicated in the abscissa of the graph (bottom panel). DNA synthesis was measured by the incorporation of [^3H]thymidine during the final 4 h. Each point represents the mean of three determinations and is representative of at least two independent experiments.
Proliferation was measured with the [^3H]thymidine uptake assay (Amersham), with [^3H]thymidine (1.0 μCi/ml) present in the medium for 4 h prior to harvesting.

HepG2-ΔRaf-1:ER cells [5] = test: Colony staining (colony formation); format: cell-based, human; details: maintained with ICI182,780; results not shown
Method: Cells were seeded at a density of 10,000 cells per 60 mm dish and maintained with or without ICI182,780 for varying periods. Colonies were stained by addition of 0.5 ml methylene blue solution for 30 min followed by washing.

HepG2-ΔRaf-1:ER cells [6] = test: Growth curves of HepG2-ΔRaf-1:ER cells (cell counting); format: cell-based, human; details: 1 μM ICI182,780
Method: as §2

[7] = 30 min pretreatment, then 1 μM ICI182,780
[8] = clone B, ICI182,780 0 to 1 μM, 4 hours

CN[C@@H]1C[C@H]2O[C@@](C)([C@@H]1OC)n1c3ccccc3c3c4c(c5c6ccccc6n2c5c31)C(=O)NC4 [staurosporine]
Raf-1 kinase phosphorylation after staurosporine pretreatment (Raf-1 kinase): inhibition of phosphorylation | transcriptional (activating) effect of ICI182,780 on the human LDL receptor promoter in presence of inhibitor [1]: suppressed | ICI182,780-induced LDL receptor expression after staurosporine pretreatment (LDL receptor; [7]): loss of LDL receptor induction | ICI182,780-induced p42/44MAPK phosphorylation after staurosporine pretreatment (p42/44^MAPK; [7]): inhibition of phosphorylation

C[C@]12CC[C@@H]3c4ccc(O)cc4C[C@@H](CCCCCCCCC[S+]([O-])CCCC(F)(F)C(F)(F)F)[C@H]3[C@@H]1CC[C@@H]2O (some centres unmarked) [ICI182,780]
cell growth of HepG2 cells (HepG2 cells): no growth arrest | morphological appearance of treated cells (HepG2-ΔRaf-1:ER cells [2]): larger with neuronal like structures (i.e. filopodia), and less refractile than untreated cells | signs of cell stress or death (HepG2-ΔRaf-1:ER cells [2]): no indication that ICI-treated cells were under stress or dying; also recorded: did not exhibit membrane blebbing and/or increase in the number of rounded and/or detached cells | cyclin A protein expression (cyclin A): strong down-regulation | cell cycle distribution (HepG2-ΔRaf-1:ER cells [3]): modest increase in the fraction of cells found in the G2/M phase with a concomitant decrease in S phase | lowest concentration at which promoter activation was detected ([1]; construct A): 0.5 µM | increase of luciferase expression driven by the LDL receptor promoter ([1]; construct A (-273 to +35), 1 μM ICI182,780 for 36 h, normalized for β-galactosidase): 4 to 6 fold | luciferase activity, promoterless luciferase vector ([1]; transfected cells containing the promoterless luciferase vector, ICI182,780 treatment): virtually no change in luciferase activity | time of maximal induction of LDL receptor expression (LDL receptor; 1 μM ICI182,780, 1 to 16 h): 3 to 4 h | increase in LDL receptor expression (LDL receptor; [8]): dependent on ICI182,780 concentration | duration of sustained high p21Cip1 levels (p21^Cip1; 1 μM ICI182,780): at least 24 h | p21Cip1 expression (p21^Cip1; 1 μM ICI182,780, between 30 and 120 min of treatment): strong increase | time at which p42/44MAPK phosphorylation was clearly detected (p42/44^MAPK; 1 μM ICI182,780, 1 to 16 h): 1 h | time of maximal p42/44MAPK phosphorylation response (p42/44^MAPK; 1 μM ICI182,780, 1 to 16 h): 2 h | increase in p42/44MAPK phosphorylation (p42/44^MAPK; [8]): dependent on ICI182,780 concentration | DNA synthesis ([3H]thymidine incorporation) (HepG2-ΔRaf-1:ER cells [4]): inhibition of DNA synthesis | ability to form colonies (HepG2-ΔRaf-1:ER cells [5]): reduced their ability to form colonies | cell growth of HepG2-ΔRaf-1:ER cells (HepG2-ΔRaf-1:ER cells [6]): arrested the growth

COc1cccc(-c2cc(=O)c3ccccc3o2)c1N [PD98059, 2-(2′-amino-3′-methoxyphenyl)-oxanaphthalene-4-one]
transcriptional (activating) effect of ICI182,780 on the human LDL receptor promoter in presence of inhibitor [1]: suppressed | p42/44MAPK induced LDL receptor expression after PD98059 (LDL receptor; PD98059 pretreatment 30 min, then 1 μM ICI182,780): significantly inhibited | p42/44MAPK phosphorylation and activation after PD98059 (p42/44^MAPK; 20 μM PD98059 for 30 min before ΔRaf-1:ER activation, data not shown): inhibited phosphorylation and activation

COc1cc(C=CC(=O)CC(=O)C=Cc2ccc(O)c(OC)c2)ccc1O [curcumin, 1,7-bis [4-hydroxy-3-methoxyphenyl]-1,6-heptadiene-3,5-dione]
transcriptional (activating) effect of ICI182,780 on the human LDL receptor promoter in presence of inhibitor [1]: completely suppressed | increase in LDL receptor expression caused by ICI182,780 in presence of curcumin (LDL receptor; 60 μM curcumin, endogenous gene): totally suppressed | time of treatment at which the blocking effect was complete (LDL receptor; curcumin, kinetic studies): 4 to 6 h | ICI182,780-dependent p42/44MAPK activation in presence of curcumin (p42/44^MAPK; curcumin before 1 μM ICI182,780): without affecting
